According to the NIST ThermoML archive (doi:10.1021/je050261u):

Test: xn = mol fraction of the nth substance listed
Conditions: Liquid, Vibrating tube method

CCCCCCC [heptane] + CCO
mass density [kg/m3]
Conditions	x2 = 0	x2 = 0.125	x2 = 0.25	x2 = 0.375	x2 = 0.5	x2 = 0.625	x2 = 0.75	x2 = 0.875
323.15 K, 50000 kPa	–	–	–	–	727.4	738.6	753.8	774
323.15 K, 55000 kPa	704.3	708.6	714	721.3	730.6	741.9	757	777.2
323.15 K, 60000 kPa	707.4	711.8	717.2	724.5	733.8	745.1	760.2	780.3
323.15 K, 65000 kPa	710.3	714.7	720.2	727.5	736.8	748.1	763.2	783.4
333.15 K, 100 kPa	649.1	652.3	657.3	664.5	673.7	685.1	700.9	722.2
333.15 K, 5000 kPa	655.2	658.4	663.4	670.7	679.9	691.2	706.8	727.9
333.15 K, 10000 kPa	661	664.2	669.4	676.6	685.7	697	712.4	733.4
333.15 K, 15000 kPa	666.3	669.6	674.7	681.9	691.1	702.3	717.7	738.5
333.15 K, 20000 kPa	670.9	674.4	679.6	686.7	696	707.1	722.5	743.2
333.15 K, 25000 kPa	675.4	678.8	684.3	691.4	700.6	711.8	727	747.5
333.15 K, 30000 kPa	679.7	683.1	688.7	695.7	704.9	716	731.3	751.7
333.15 K, 35000 kPa	683.8	687.1	692.8	699.9	709.1	720.1	735.4	755.8
333.15 K, 40000 kPa	687.6	690.9	696.6	703.8	713	724	739.2	759.6
333.15 K, 45000 kPa	691.3	694.6	700.4	707.5	716.7	727.7	743	763.3
333.15 K, 50000 kPa	694.8	698.2	704	711.2	720.3	731.4	746.6	766.8
333.15 K, 55000 kPa	698.4	701.7	707.6	714.7	723.9	735	750.2	770.4
333.15 K, 60000 kPa	701.5	705	710.8	718	727.2	738.2	753.4	773.6
333.15 K, 65000 kPa	704.7	708.1	714	721.3	730.4	741.4	756.7	776.8
